One test concerns A. flavus IFM 41935. Briefly: Test 3: In vitro antifungal activity against Aspergillus flavus (MIC). It counts as cell-based. The conditions noted are these: IFM41935, RPMI 1640 with 0.165M MOPS, pH 7, 35° C., 24 hours. The method, then: Test 3: In vitro antifungal activity against Aspergillus flavus
(§1) They were incubated at 35° C. for 24 hours.

Another test relates to A. fumigatus IFM 40808. Kind of test: Test 2: In vitro antifungal activity against Aspergillus fumigatus (MIC). The following applies: IFM40808, RPMI 1640 with 0.165M MOPS, pH 7, 35° C., 24 hours. The test is classed as cell-based. The method, then: Test 2: In vitro antifungal activity against Aspergillus fumigatus
as §1

Another test concerns C. albicans ATCC 44859. Kind of test: Test 1: In vitro antifungal activity against Candida albicans (suppression of mycelial type growth). The test is classed as cell-based. The conditions noted are these: ATCC44859, minimum concentration permitting apparent suppression of mycerial type growth, 10% fetal bovine serum added MEM, 37° C., 20 hours, read-out: Terminal Point C. albicans. The method, then: Test 1: In vitro antifungal activity against Candida albicans
They were incubated at 37° C. for 20 hours in a CO2 gas incubator. After incubation, morphological change of C. albicans was observed under an inverted microscope.

In the next test the test system is C. albicans IFM 40009. Briefly: Test 4: In vivo antifungal activity against Candida albicans (survival of infected mice). Also on record: species or system Candida albicans; male ICR (CRJ: CD-1) mouse. The conditions noted are these: oral 1.25 mg/kg each, four times in total; for Mean survival days: 14 days after infection, vs. control ***: p < 0.001, **: p < 0.01; for Survival mice on 14-th day: survivors/mice of group. The method, then: Test 4: In vivo antifungal activity against Candida albicans
After 4-week-old, male, ICR (CRJ: CD-1) mouse was fasted for 6 hours, C. albicans IFM 40009 was inoculated to a tail vein of the mouse to give an amount of 3.0×10^6 cells/mouse, whereby infection was caused. A control group consisted of 8 mice, while a chemical-administered group consisted of 5 mice. The chemical was orally administered once an hour after the inoculation of the fungus and 24 hours after the inoculation, and once a day consecutively, four times in total, at 1.25 mg/kg each. The survival during 14 days after the infection was counted. In addition, the mean survival days of the control group and the mean survival days of the chemical-administered group were compared and statistically analyzed by the Kaplan-Meire method (Cox mantel test).

≈ marks a conversion by molar mass, not a printed value.

Regarding `CC(=O)OCCSC(F)(F)C(O)(Cn1cncn1)c1ccc(F)cc1F` (stereo not drawn) [Example 14, 1-(2-acetoxyethyl)thio-2-(2,4-difluorophenyl)-1,1-difluoro-3-(1H-1,2,4-triazol-1-yl)propan-2-ol], the MIC with A. flavus IFM 41935 was 4 µg/mL (≈ 10.2 µM); in the test with A. fumigatus IFM 40808 it was 8 µg/mL (≈ 20.3 µM); in the test with C. albicans ATCC 44859 it was 0.0313 µg/mL (≈ 0.0796 µM).

For `COCCSC(F)(F)C(O)(Cn1cncn1)c1ccc(F)cc1F` (stereo not drawn) [Example 15, 2-(2,4-difluorophenyl)-1,1-difluoro-1-(2-methoxyethyl)thio-3-(1H-1,2,4-triazol-1-yl)propan-2-ol], the MIC worked out at 8 µg/mL (≈ 21.9 µM) against A. flavus IFM 41935, 4 µg/mL (≈ 10.9 µM) with A. fumigatus IFM 40808 and 0.0156 µg/mL (≈ 0.0427 µM) with C. albicans ATCC 44859.

On to `OCCSC(F)(F)C(O)(Cn1cncn1)c1ccc(F)cc1F` (stereo not drawn) [Example 18, 2-(2,4-difluorophenyl)-1,1-difluoro-1-(2-hydroxyethyl)thio-3-(1H-1,2,4-triazol-1-yl)propan-2-ol], for which the MIC amounted to 64 µg/mL (≈ 182 µM) in the test on A. flavus IFM 41935, 64 µg/mL (≈ 182 µM) against A. fumigatus IFM 40808 and 0.25 µg/mL (≈ 0.712 µM) in the test on C. albicans ATCC 44859.

For `O=S(=O)(CCO)C(F)(F)C(O)(Cn1cncn1)c1ccc(F)cc1F` (stereo not drawn) [Example 20, 2-(2,4-difluorophenyl)-1,1-difluoro-1-(2-hydroxyethyl)sulfonyl-3-(1H-1,2,4-triazol-1-yl)propan-2-ol], in the test with C. albicans IFM 40009, the Mean survival days is 14.0 days and the “Survival mice on 14-th day” value is reported as 5/5.

In the case of `COCCS(=O)(=O)C(F)(F)C(O)(Cn1cncn1)c1ccc(F)cc1F` (stereo not drawn) [Example 21, 2-(2,4-difluorophenyl)-1,1-difluoro-1-(2-methoxyethyl)sulfonyl-3-(1H-1,2,4-triazol-1-yl)propan-2-ol], the MIC with A. flavus IFM 41935 came out at 32 µg/mL (≈ 80.5 µM); against A. fumigatus IFM 40808, 16 µg/mL (≈ 40.3 µM); with C. albicans ATCC 44859, 0.0625 µg/mL (≈ 0.157 µM). The same molecule displayed a Mean survival days in the test with C. albicans IFM 40009 of 14.0 days. Besides, the “Survival mice on 14-th day” value in the test on C. albicans IFM 40009 was 4/5.

`OC(Cn1cncn1)(Cn1cncn1)c1ccc(F)cc1F` [Fluconazole, reference compound]: the MIC with A. flavus IFM 41935 was more than 128 µg/mL; against A. fumigatus IFM 40808 it was more than 128 µg/mL; in the test with C. albicans ATCC 44859, 0.25 µg/mL (≈ 0.816 µM). Also, in the test with C. albicans IFM 40009, the Mean survival days came to 9.6 days. In addition, the “Survival mice on 14-th day” value with C. albicans IFM 40009 was 0/5.

These data come from US5939448A, “Triazole derivative or salt thereof” (SS Pharmaceutical Co., Ltd., priority 1996, dated 1999).
